Drawing on US5631354A, “5-O-desosaminylerythronolide derivatives” (Taisho Pharmaceutical Co., Ltd., priority 1991, dated 1997), this text covers MIC for six molecules.

Test in all cases: in vitro antibacterial activity (MIC measuring method of Japanese Chemotherapeutic Association)
What all share (assay type): cell-based

In one assay the test system is E. faecalis CSJ 1212. The conditions noted are these: Enterococcus faecalis. The method, then: (§1) The in vitro antibacterial activity of the compounds of the present invention against various test bacteria was determined according to the MIC measuring method of Japanese Chemotherapeutic Association by using a sensitive disc media (available from Eiken Chemical Co.). 6-O-methylerythromycin A was used as a reference agent in Table 1, and erythromycin A in Table 2.

In another assay the test system is S. aureus C1. The conditions noted are these: Staphylococcus aureus. The method, then: as §1
The subject of another assay is S. aureus 209P-JC. The conditions noted are these: Staphylococcus aureus, read-out: MIC value (minimum inhibitory concentration). The method, then: as §1
Another assay concerns S. aureus J-109. The conditions noted are these: Staphylococcus aureus, J109, sensitive disc media, read-out: MIC value (minimum inhibitory concentration). The method, then: as §1
For another assay, the system named is S. aureus B1. The conditions noted are these: Staphylococcus aureus. The method, then:
as §1

A further assay concerns S. epidermides IID 866. Particulars: read-out: MIC value (minimum inhibitory concentration). The procedure: as §1
In another assay the test system is S. aureus Smith 4. The conditions noted are these: Staphylococcus aureus, SMITH4, sensitive disc media, read-out: MIC value (minimum inhibitory concentration). The procedure:
as §1

The mark [1] stands for this setting: CSJ1212, read-out: MIC value (minimum inhibitory concentration).
[2] abbreviates: C1, read-out: MIC value (minimum inhibitory concentration).
The mark [3] stands for this setting: B1, read-out: MIC value (minimum inhibitory concentration).
Setting [4] is: CSJ1212, E. faecalis CSJ 1212, sensitive disc media, read-out: MIC value (minimum inhibitory concentration).
Setting [5] is: S. aureus 209P-JC, sensitive disc media.

In brackets after ≈: the same amount, converted by molar mass. Where two headings read alike, the source gives them in different places.

In the case of `CC[C@H]1OC(=O)[C@H](C)[C@@H](OC(=O)Cc2ccc([N+](=O)[O-])cc2[N+](=O)[O-])[C@H](C)[C@@H](O[C@@H]2O[C@H](C)C[C@H](N(C)C)[C@H]2O)[C@](C)(OC)C[C@@H](C)C(=O)[C@H](C)[C@@H](O)[C@]1(C)O` [Example 3, 3-O-(2,4-dinitrophenyl)acetyl-5-O-desosaminyl-6-O-methylerythronolide A], the MIC with E. faecalis CSJ 1212 (setting [1]) is 0.1 µg/mL (≈ 0.125 µM); in the assay with S. aureus C1 (setting [2]), 0.1 µg/mL (≈ 0.125 µM); with S. aureus 209P-JC (209P) it was 0.05 µg/mL (≈ 0.0627 µM); with S. aureus J-109, more than 100 µg/mL; in the assay on S. aureus B1 (setting [3]), 0.2 µg/mL (≈ 0.251 µM); in the assay with S. epidermides IID 866 it was 0.1 µg/mL (≈ 0.125 µM). In the assay on S. aureus Smith 4, the MIC amounted to 0.1 µg/mL (≈ 0.125 µM).

On to `CC[C@H]1OC(=O)[C@H](C)[C@@H](O[C@H]2C[C@@](C)(OC)[C@@H](O)[C@H](C)O2)[C@H](C)[C@@H](O[C@@H]2O[C@H](C)C[C@H](N(C)C)[C@H]2O)[C@](C)(O)C[C@@H](C)C(=O)[C@H](C)[C@@H](O)[C@]1(C)O` [erythromycin A, reference compound], for which the MIC in the assay on E. faecalis CSJ 1212 (setting [1]) was 0.78 µg/mL (≈ 1.06 µM); in the assay with S. aureus C1 (setting [2]) it was more than 100 µg/mL; with S. aureus 209P-JC (209P), 0.1 µg/mL (≈ 0.136 µM); in the assay with S. aureus J-109, more than 100 µg/mL; in the assay with S. aureus B1 (setting [3]), more than 100 µg/mL; in the assay with S. epidermides IID 866 it was 0.1 µg/mL (≈ 0.136 µM). Further, the MIC in the assay with S. aureus Smith 4 is 0.2 µg/mL (≈ 0.273 µM).

In the case of `CC[C@H]1OC(=O)[C@H](C)[C@@H](OC(=O)Cc2ccc([N+](=O)[O-])cc2)[C@H](C)[C@@H](O[C@@H]2O[C@H](C)C[C@H](N(C)C)[C@H]2O)[C@](C)(OC)C[C@@H](C)C(=NO)[C@H](C)[C@H]2OC(=O)O[C@@]21C` [Example 1, 3-O-(4-nitrophenyl)acetyl-5-O-desosaminyl-6-O-methylerythronolide A 9-oxime 11,12cyclic carbonate], the MIC in the assay on E. faecalis CSJ 1212 (setting [4]) is 0.05 µg/mL (≈ 0.063 µM); with S. aureus C1 (setting [2]), 0.1 µg/mL (≈ 0.126 µM); in the assay on S. aureus 209P-JC (setting [5]), 0.025 µg/mL (≈ 0.0315 µM); in the assay with S. aureus J-109, more than 100 µg/mL; in the assay with S. aureus B1 (setting [3]), 0.1 µg/mL (≈ 0.126 µM); in the assay on S. epidermides IID 866, 0.05 µg/mL (≈ 0.063 µM). In addition, the MIC with S. aureus Smith 4 was determined as 0.05 µg/mL (≈ 0.063 µM).

Consider `CC[C@H]1OC(=O)[C@H](C)[C@@H](OC(=O)Cc2ccc([N+](=O)[O-])cc2)[C@H](C)[C@@H](O[C@@H]2O[C@H](C)C[C@H](N(C)C)[C@H]2O)[C@](C)(OC)C[C@@H](C)C(=O)[C@H](C)[C@H]2OC(=O)O[C@@]21C` [Example 9, 3-O-(4-nitrophenyl)acetyl-5-O-desosaminyl-6-O-methylerythronolide A 11,12 cyclic carbonate], for which the MIC is 0.05 µg/mL (≈ 0.0642 µM) with E. faecalis CSJ 1212 (setting [4]); 0.05 µg/mL (≈ 0.0642 µM) in the assay with S. aureus C1 (setting [2]); 0.025 µg/mL (≈ 0.0321 µM) with S. aureus 209P-JC (setting [5]); more than 100 µg/mL with S. aureus J-109; 0.2 µg/mL (≈ 0.257 µM) with S. aureus B1 (S. aureus B1, sensitive disc media, read-out: MIC value (minimum inhibitory concentration)); 0.05 µg/mL (≈ 0.0642 µM) with S. epidermides IID 866. Also, the MIC in the assay with S. aureus Smith 4 came out at 0.05 µg/mL (≈ 0.0642 µM).

For the molecule `CC[C@H]1OC(=O)[C@H](C)[C@@H](O[C@H]2C[C@@](C)(OC)[C@@H](O)[C@H](C)O2)[C@H](C)[C@@H](O[C@@H]2O[C@H](C)C[C@H](N(C)C)[C@H]2O)[C@](C)(OC)C[C@@H](C)C(=O)[C@H](C)[C@@H](O)[C@]1(C)O` [6-O-methylerythromycin A, reference compound], the MIC with E. faecalis CSJ 1212 (setting [1]) is 0.78 µg/mL (≈ 1.04 µM); in the assay on S. aureus C1 (S. aureus C1, sensitive disc media, read-out: MIC value (minimum inhibitory concentration)), 25 µg/mL (≈ 33.4 µM); in the assay with S. aureus 209P-JC (209P), 0.05 µg/mL (≈ 0.0668 µM); in the assay with S. aureus J-109 it was more than 100 µg/mL; with S. aureus B1 (setting [3]), more than 100 µg/mL; in the assay with S. epidermides IID 866, 0.1 µg/mL (≈ 0.134 µM). Besides, the MIC with S. aureus Smith 4 was determined as 0.1 µg/mL (≈ 0.134 µM).

`CC[C@H]1OC(=O)[C@H](C)[C@@H](OC(=O)Cc2ccc([N+](=O)[O-])cc2)[C@H](C)[C@@H](O[C@@H]2O[C@H](C)C[C@H](N(C)C)[C@H]2O)[C@](C)(O)C[C@@H](C)C(=NO)[C@H](C)[C@H]2OC(=O)O[C@@]21C` [Example 15, 3-0-(4-nitrophenyl)acetyl-5-O-desosaminylerythronolide A 9-oxime 11,12-cyclic carbonate]: the MIC with E. faecalis CSJ 1212 (setting [4]) is 0.05 µg/mL (≈ 0.0641 µM); with S. aureus C1 (setting [2]), 0.78 µg/mL (≈ 1 µM); in the assay with S. aureus 209P-JC (209P), 0.05 µg/mL (≈ 0.0641 µM); with S. aureus J-109, more than 100 µg/mL; in the assay on S. aureus B1 (setting [3]) it was 0.1 µg/mL (≈ 0.128 µM); with S. epidermides IID 866, 0.05 µg/mL (≈ 0.0641 µM). In addition, the MIC with S. aureus Smith 4 amounted to 0.05 µg/mL (≈ 0.0641 µM).
